Data from article PMC5650142, “GPR40 partial agonists and AgoPAMs: Differentiating effects on glucose and hormonal secretions in the rodent” (PLoS ONE, 2017).
“And” between values parts separate entries of the source, which are not always exact repeats. Equal entries are not always repeated. Where two headings read alike, the source gives them in different places. Values belong to the compound of their own block, whether it stands above or below them.

Assays:
[1] = target: T1, rat GPR40 (Rattus norvegicus, UniProt Q8K3T4); assay: Rat GPR40 IP1 accumulation assay; format: cell-based; conditions: for Efficacy (% Activation), Rat: maximal % activity vs in-house partial agonist control
T1 construct: expressed in transfected cells; host or cells: CHO-K1 (methods)
Description: (§1) Stable cell lines expressing human GPR40 (hGPR40/HEK293), mouse GPR40 (mGPR40/CHO-K1), and rat GPR40 (rGPR40/CHO-K1) were cultured in DMEM media supplemented with 10% FBS, glutamine, non-essential amino acids, and penicillin/streptomycin. hGPR40/HEK293 & mGPR40/CHO-K1 cell media was supplemented with […] G418 (Life Technologies), while rGPR40/CHO-K1 cells were grown in […] blasticidin plus […] hygromycin (Life Technologies). Cell stocks were maintained and grown in a sub-confluent state using standard cell culture procedures. The day before the experiment, the cells were harvested with non-enzymatic cell dissociation buffer and re-suspended in DMEM supplemented with 10% FBS, glutamine, non-essential amino acids, penicillin/streptomycin at 0.15, 0.2 and 0.3 million cells per ml for human, mouse, and rat GPR40, respectively. […] The seeded plates were incubated overnight at 37 C.
(§2) On the day of the experiment, the growth media was removed from the assay by gently patting the assay plates on an absorbent sheet and 10 μl of IP1 stimulation buffer (Cis Bio IP-one Tb HTRF kit) supplemented with 50 mM LiCl is added to each well. Test compounds dissolved in DMSO were serially diluted in ½ log increments starting from 2 mM or 0.2 mM and 50 nl of the compound dilution was acoustically added to each well (final starting concentration 10 μM or 1 μM). Plates were then incubated for 60 minutes at room temperature and 10 μl of detection buffer (prepared as described in the Tb kit) is added to each well. The plates are then incubated one additional hour at room temperature. […] For each assay, a standard curve plate in which IP1 is titrated is also included. […] The percent activity at each concentration of test compound is determined using 0% activation (basal activity) determined in those wells that contain DMSO alone, while 100% activity is determined in wells that contained a concentration of a partial allosteric agonist know to activate GPR40. The % activity is then plotted versus the concentration of test compound and the dose response curve fitted to a standard 4-parameter non-linear regression model using a custom in-house developed software package (Merck & Co., Inc., MRL, Kenilworth, NJ, USA). Maximal % activity and EC50 are then determined for each test compound.

[2] = target: T2, mouse GPR40 (Mus musculus, UniProt Q76JU9); assay: Mouse GPR40 IP1 accumulation assay; format: cell-based; conditions: for Efficacy (% Activation), Mouse: maximal % activity vs in-house partial agonist control
T2 construct: expressed in transfected cells; host or cells: CHO-K1 (methods)
Description: as §1, §2

[3] = target: T3, human GPR40 (Homo sapiens, UniProt O14842); assay: Human GPR40 IP1 accumulation assay; format: cell-based; parameters: expressed in transfected cells; conditions: for Efficacy (% Activation), Human: maximal % activity vs in-house partial agonist control
Description: as §1, §2

[4] = target: T3, human GPR40; assay: GPR40 binding assay, partial agonist tracer [3H]L358; parameters: expressed in transfected cells; host or cells: CHO / CHO-K1 cells, membrane preparation; conditions: for % Bound Normalized to 100 / %Bound: radioligand L-001533358;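 for %Bound: 100% is tracer binding with DMSO alone and 0% is full displacement by a standard compound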
Description: Two small molecule tracers, the partial agonist [3H][…] and the AgoPAM [3H]25, are used to measure compound affinity at each site as described previously. Because of the allosteric coupling of the two sites and the nature of the assay, addition of a compound will either displace (binds to same site) or augment (binds to allosterically coupled site) radiotracer. Membranes expressing GPR40 were prepared from CHO cells stably expressing human GPR40. […] Sigma P8830) and were homogenized in 50 ml aliquots with a motor-driven glass Dounce homogenizer, 15 strokes at 1900 rpm on wet ice, repeating once. Homogenates were centrifuged at 2200 rpm for 10 min at 4°C. Supernatants were carefully removed and pooled. Homogenization and centrifugation were repeated until the debris pellet was translucent to maximize membrane recovery. Supernatants were then centrifuged at […] rpm for 20 min. at 4°C. […] Protein concentration was determined by Pierce BCA kit. […] The beads and membrane mixture is then vigorously mixed for 30 minutes at room temperature prior to addition to the assay. […] Next, 15 μl of the radioligand and 35 μl of the beads/membranes solution is added to each well. The assay plates are then sealed and incubated for 30 minutes at room temperature on an orbital shaker. The plates are allowed to settle for 16 hours and then counted on a TopCount scintillation counter (PE). […] Maximal % bound and IC50 are then determined for each test compound. 5 μg/well membrane together with 200 μg/well of PVT WGA SPA beads (GE #RPNG-0001) were suspended in a white 96 well plate with a final concentration of 50 μl/well in assay buffer (50 mM Tris, 10 mM MgCl2, and 2 mM EDTA). […] The plate is briefly mixed and incubated for 3-18 h at room temperature, before it is read on a MicroBeta plate counter (Perkin Elmer, MS, USA).

[5] = mean ± SD, n = 2–20, IP accumulation, read-out: Potency [EC50, nM] ± SD, Rat
[6] = mean ± SD, n = 2–20, IP accumulation, read-out: Potency [EC50, nM] ± SD, Mouse
[7] = mean ± SD, n = 2–20, IP accumulation, read-out: Potency [EC50, nM] ± SD, Human

T2 sequence (Q76JU9 whole entry): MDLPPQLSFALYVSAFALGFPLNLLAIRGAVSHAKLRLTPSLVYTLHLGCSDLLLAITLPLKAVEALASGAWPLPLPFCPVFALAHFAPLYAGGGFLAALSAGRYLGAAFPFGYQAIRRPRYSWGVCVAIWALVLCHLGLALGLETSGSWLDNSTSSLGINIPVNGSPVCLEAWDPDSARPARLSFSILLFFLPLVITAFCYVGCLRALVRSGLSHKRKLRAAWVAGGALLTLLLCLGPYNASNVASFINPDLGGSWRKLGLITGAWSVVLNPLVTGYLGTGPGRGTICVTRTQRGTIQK
T3 sequence (O14842 whole entry): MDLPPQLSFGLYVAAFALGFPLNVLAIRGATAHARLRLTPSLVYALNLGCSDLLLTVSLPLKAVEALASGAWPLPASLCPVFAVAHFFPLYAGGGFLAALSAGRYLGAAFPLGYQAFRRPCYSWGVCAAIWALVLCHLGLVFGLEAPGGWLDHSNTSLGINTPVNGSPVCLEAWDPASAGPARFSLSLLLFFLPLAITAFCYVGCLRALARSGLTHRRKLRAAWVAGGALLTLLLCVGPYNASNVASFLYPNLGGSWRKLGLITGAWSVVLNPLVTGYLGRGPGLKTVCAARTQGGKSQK
T1 sequence (Q8K3T4 whole entry): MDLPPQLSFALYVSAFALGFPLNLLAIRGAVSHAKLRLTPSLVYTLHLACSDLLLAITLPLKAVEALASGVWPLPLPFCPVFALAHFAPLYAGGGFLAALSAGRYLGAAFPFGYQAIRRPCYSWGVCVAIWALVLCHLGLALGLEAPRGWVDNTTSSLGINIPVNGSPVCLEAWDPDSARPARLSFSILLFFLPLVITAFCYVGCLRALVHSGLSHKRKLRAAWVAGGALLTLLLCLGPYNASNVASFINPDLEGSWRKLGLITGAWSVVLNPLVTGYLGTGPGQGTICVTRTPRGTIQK

Rat GPR40 Receptor Activation (%) ([1]; dose 1.50E-11 M): -10% | Rat GPR40 Receptor Activation (%) ([1]; dose 1.55E-08 M): 330% | Rat GPR40 Receptor Activation (%) ([1]; dose 2.43E-10 M): 24% | Rat GPR40 Receptor Activation (%) ([1]; dose 2.49E-07 M): 412% | Rat GPR40 Receptor Activation (%) ([1]; dose 3.89E-09 M): 269% | Rat GPR40 Receptor Activation (%) ([1]; dose 4.00E-12 M): -6.43% | Rat GPR40 Receptor Activation (%) ([1]; dose 6.10E-11 M): -0.311% | Rat GPR40 Receptor Activation (%) ([1]; dose 6.22E-08 M): 389% | Rat GPR40 Receptor Activation (%) ([1]; dose 9.72E-10 M): 121% | Rat GPR40 Receptor Activation (%) ([1]; dose 9.95E-07 M): 389% | EC50 ([1]; individual determinations, read-out: EC50 (nM), Rat GPR40, Functional Assay): 0.79 nM and 0.8 nM and 0.9 nM and 1.01 nM and 1.46 nM and 1.5 nM and 2.03 nM and 2.24 nM and 2.29 nM and 0.57 nM and 0.7 nM and 0.75 nM | Efficacy (% Activation), Rat [1]: (405%) | EC50 [1, 5]: 1.3 ± 0.63 nM | Mouse GPR40 Receptor Activation (%) ([2]; dose 1.50E-11 M): -3.27% | Mouse GPR40 Receptor Activation (%) ([2]; dose 1.55E-08 M): 446% | Mouse GPR40 Receptor Activation (%) ([2]; dose 2.43E-10 M): 50% | Mouse GPR40 Receptor Activation (%) ([2]; dose 2.49E-07 M): 525% | Mouse GPR40 Receptor Activation (%) ([2]; dose 3.89E-09 M): 371% | Mouse GPR40 Receptor Activation (%) ([2]; dose 4.00E-12 M): -5% | Mouse GPR40 Receptor Activation (%) ([2]; dose 6.10E-11 M): 5% | Mouse GPR40 Receptor Activation (%) ([2]; dose 6.22E-08 M): 431% | Mouse GPR40 Receptor Activation (%) ([2]; dose 9.72E-10 M): 174% | EC50 ([2]; individual determinations, read-out: EC50 (nM), Mouse GPR40, Functional Assay): 0.64 nM and 0.73 nM and 1.06 nM and 1.33 nM and 1.52 nM and 2.22 nM and 2.5 nM and 0.46 nM and 0.58 nM and 0.59 nM | Efficacy (% Activation), Mouse [2]: (478%) | EC50 [2, 6]: 1.2 ± 0.72 nM | Human GPR40 Receptor Activation (%) ([3]; dose 1.50E-11 M): -1.6% | Human GPR40 Receptor Activation (%) ([3]; dose 1.55E-08 M): 280% | Human GPR40 Receptor Activation (%) ([3]; dose 2.43E-10 M): 54% | Human GPR40 Receptor Activation (%) ([3]; dose 2.49E-07 M): 306% | Human GPR40 Receptor Activation (%) ([3]; dose 3.89E-09 M): 288% | Human GPR40 Receptor Activation (%) ([3]; dose 4.00E-12 M): -5% | Human GPR40 Receptor Activation (%) ([3]; dose 6.10E-11 M): 7% | Human GPR40 Receptor Activation (%) ([3]; dose 6.22E-08 M): 328% | Human GPR40 Receptor Activation (%) ([3]; dose 9.72E-10 M): 183% | Human GPR40 Receptor Activation (%) ([3]; dose 9.95E-07 M): 328% | EC50 ([3]; individual determinations, read-out: EC50 (nM), HUMAN GPR40, Functional Assay): 0.32 nM and 0.43 nM and 0.46 nM and 0.47 nM and 0.73 nM and 0.8 nM and 0.91 nM and 0.19 nM and 0.24 nM and 0.27 nM | Efficacy (% Activation), Human [3]: (318%) | EC50 [3, 7]: 0.48 ± 0.25 nM | % Bound Normalized to 100 ([4]; dose 0.318285 nM): 82.24% | %Bound ([4]; dose 0.318285 nM): 88.22% | % Bound Normalized to 100 ([4]; dose 1.00578 nM): 93.26% | %Bound ([4]; dose 1.00578 nM): 99.24% | % Bound Normalized to 100 ([4]; dose 3.17827 nM): 115.15% | %Bound ([4]; dose 3.17827 nM): 121.13% | % Bound Normalized to 100 ([4]; dose 10.0433 nM): 125.44% | %Bound ([4]; dose 10.0433 nM): 131.41% | % Bound Normalized to 100 ([4]; dose 31.7369 nM): 126.76% | %Bound ([4]; dose 31.7369 nM): 132.74% | % Bound Normalized to 100 ([4]; dose 100.289 nM): 126.17% | %Bound ([4]; dose 100.289 nM): 132.15% | % Bound Normalized to 100 ([4]; dose 316.912 nM): 135.28% | %Bound ([4]; dose 316.912 nM): 141.26% | % Bound Normalized to 100 ([4]; dose 1001.44 nM): 137.19% | %Bound ([4]; dose 1001.44 nM): 143.17% | % Bound Normalized to 100 ([4]; dose 3164.56 nM): 164.81% | %Bound ([4]; dose 3164.56 nM): 170.79% | % Bound Normalized to 100 ([4]; dose 10000 nM): 174.51% | %Bound ([4]; dose 10000 nM): 180.49%
SMILES: C[C@H](C(=O)O)[C@H](c1ccc2c(c1)O[C@H](C1CN(Cc3cc(C(F)(F)F)ccc3C(F)(F)F)C1)CC2)C1CC1 [AP3]
%Act, Rat GPR40, Functional Assay ([1]; individual determinations): 265% and 529% and 336% and 568% and 267% and 374% and 399% and 444% and 459% and 365% and 466% and 382% | %Act, Mouse GPR40, Functional Assay ([2]; individual determinations): 596% and 682% and 213% and 314% and 487% and 456% and 680% and 434% and 501% and 418% | %Act, HUMAN GPR40, Functional Assay ([3]; individual determinations): 407% and 332% and 338% and 274% and 324% and 328% and 239% and 282% and 383% and 273%

Efficacy (% Activation), Rat [1]: (155%) | EC50 [1, 5]: 5.2 ± 2.5 nM | Efficacy (% Activation), Mouse [2]: (157%) | EC50 [2, 6]: 2.6 ± 0.8 nM | Efficacy (% Activation), Human [3]: (85%) | EC50 [3, 7]: 24 ± 13 nM | Binding Results, % in parentheses, [^3H]L-358 ([4]; WT human GPR40, maximal % (not defined)): (108%) | IC50 ([4]; WT human GPR40, n = 2–13, read-out: Binding Results [IC50, nM], [^3H]L-358): 17 ± 4.7 nM | binding of [^3H]L358 ([4]; human GPR40 membranes, competition binding): displace
SMILES: O=C1NC(=O)C(C2CCOc3cc(Oc4ccc(C(F)(F)F)cc4Cl)ccc32)S1 (stereo not shown) [MK-2305, reference compound]
